Test results from US9314506B2, “Methods for increasing insulin secretion by co-stimulation of corticotropin-releasing factor receptors” (Research Development Foundation, priority 2011, dated 2016).

B1: Ucn 1: Urocortin 1, agonist of both CRF1 and CRF2 receptors, expressed transgenically in mouse beta cells under doxycycline control (protein, listed as Homo sapiens)
chain: MRQAGRAALLAALLLLVQLCPGSSQRSPEAAGVQDPSLRWSPGARNQGGGARALLLLLAERFPRRAGPGRLGLGTAGERPRRDNPSLSIDLTFHLLRTLLELARTQSQRERAEQNRIIFDSVGK

Assays:
[1] = system: Human islets; assay: Insulin secretion from cultured human islets (insulin ELISA); assay type: cell-based; conditions: FIG. 1; for Insulin secretion, single agonist: human islets, 60 min stimulation with glucose and peptide, single CRF receptor agonist added
Experimental: Human islets were handpicked twice and cultured overnight in CMRL-1066 medium (Invitrogen™) supplemented with 10% fetal bovine serum (FBS) and penicillin/streptomycin at 37° C., 5% CO2. Islets were starved in RPMI 1640 medium supplemented with 1.4 mM glucose and 0.1% BSA for 60 min and then were transferred into 1.2 mL of medium (RPMI 1640 supplemented with 2.8 mM glucose, 0.1% BSA) in 24-well plates at 100 islets/well. After 60 min, 600 μL of medium was collected for the determination of basal insulin release, and then islets were stimulated for 60 min with glucose and peptide as indicated in RPMI 1640 containing 0.1% BSA. Samples were diluted 20 times in RPMI 1640 with 0.1% BSA and were stored at −20° C. until determination of insulin concentrations with an insulin ELISA kit (Mercodia AB).
Peptides used in the studies were ovine CRF (oCRF), a selective CRF-R1 agonist; human Urocortin 3 (hUcn 3), a selective CRF-R2 agonist; antalarmin, a selective CRF-R1 antagonist; and astressin2-B, a selective CRF-R2 antagonist. […] Insulin secretion was enhanced by addition of either a CRF1 receptor agonist (oCRF) or a CRF2 receptor agonist (hUcn 3). […] The synergistic enhancement was inhibited by the addition of either a CRF1 receptor antagonist (antalarmin) or a CRF2 receptor antagonist (astressin2-B) to the cells (FIG. 1).

[2] = system: pancreatic beta cell mass; assay: Beta cell mass in doxycycline-inducible, beta cell-specific Ucn 1 transgenic mice; assay type: in vivo; conditions: bitransgenic mouse, doxycycline for 6 weeks (21 days to 9 weeks of age), vs single transgenic controls on dox or bitransgenic without dox; FIG. 5
Text: A transgenic mouse model that features beta cell-specific, doxycycline-inducible expression of Ucn 1 was generated by routine transgenic techniques. Single transgenic mice were obtained comprising either an expressible tetracycline transactivator (tTA) protein under the control of a pancreas-specific Insulin2 promoter (Jax Stock#008250 STOCK Tg(Ins2-rtTA)2Efr/J) or expressible Ucn1 under the control of a tTA protein-activated promoter (see, e.g., Sun et al., 2007 and Mallo, 2006). Single transgenic mice were crossed to generate the bitransgenic mice referenced in the studies. Thus, transgenic Ucn 1 expression in beta cells requires the presence of two transgenic cassettes as well as the administration of doxycycline. […] Bitransgenic animals, along with single transgenic controls, were administered doxycyline continuously as indicated from 21 days until 9 weeks of age. […] Sections were mounted in fluorescence mounting media containing dapi counterstain. Each section was scanned and the total pancreas surface area (based on the dapi counterstain) and the total beta cell surface area (based on the insulin-Cy3 stain) were quantified using standard morphometry techniques using Metamorph software. Beta cell area in each animal was expressed as the insulin+ surface area as a percentage of the total surface area (FIG. 5).

Molecule	Insulin secretion, single agonist [1]	further results
hUcn 3: human Urocortin 3, a selective CRF-R2 agonist (FTLSLDVPTNIMNLLFNIAKAKNLRAQAAANAHLMAQI)	enhanced	
CCCCN(CC)c1nc(C)nc2c1c(C)c(C)n2-c1c(C)cc(C)cc1C [antalarmin]		Effect of antagonist on the synergistic enhancement of insulin secretion ([1]; human islets co-stimulated with CRF1 and CRF2 receptor agonists, antagonist added): inhibited
oCRF: ovine CRF, a selective CRF-R1 agonist (SQEPPISLDLTFHLLREVLEMTKADQLAQQAHSNRKLLDIA)	enhanced	
B1		Beta cell mass (insulin+ surface area as a percentage of total pancreas surface area) [2]: robust increase
